Data reported in patent US20100298141A1, “SUBSTITUTED PYRIDINE N-OXIDE HERBICIDES” (E. I. DU PONT DE NEMOURS AND COMPANY, priority 2007, published 2010).

Legend:
morningglory = test: Test A pre-/postemergence greenhouse test; assay type: in vivo, Ipomoea spp.; conditions: for Plant response rating, Morningglory: 0 to 100 scale where 0 is no effect and 100 is complete control; for Morningglory plant response rating: 0 to 100 scale
Procedure, shortened: (§1)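 Pre: directed soil spray on seeded loam/sand. Post: foliar spray, plants 2–10 cm, 1–2 leaf stage, applied concurrently. Vehicle: non-phytotoxic solvent + surfactant. Greenhouse ~10 d; visual injury rating vs untreated controls.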

corn = test: Test A pre-/postemergence greenhouse test; assay type: in vivo, Zea mays; conditions: for Plant response rating, Corn: 0 to 100 scale where 0 is no effect and 100 is complete control; for Corn plant response rating: 0 to 100 scale
Procedure, shortened: as §1

crabgrass = test: Test A pre-/postemergence greenhouse test; assay type: in vivo, Digitaria sanguinalis; conditions: for Plant response rating, Crabgrass, Large: 0 to 100 scale where 0 is no effect and 100 is complete control; for Crabgrass, Large plant response rating: 0 to 100 scale
Procedure, shortened: as §1

duck salad = test: Test C flooded paddy test; assay type: in vivo, Heteranthera limosa; conditions: Flood
Procedure, shortened: (§2)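 Test compounds are applied straight into paddy water held 3 cm above the soil surface, with that flood maintained for the whole test. After 13 to 15 days in the greenhouse, each species is scored visually relative to controls.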

barnyardgrass [1] = test: Test A pre-/postemergence greenhouse test; assay type: in vivo, Echinochloa crus-galli; conditions: for Plant response rating, Barnyardgrass: 0 to 100 scale where 0 is no effect and 100 is complete control; for Barnyardgrass plant response rating: 0 to 100 scale
Procedure, shortened: as §1

velvetleaf = test: Test A pre-/postemergence greenhouse test; assay type: in vivo, Abutilon theophrasti; conditions: for Plant response rating, Velvetleaf: 0 to 100 scale where 0 is no effect and 100 is complete control; for Velvetleaf plant response rating: 0 to 100 scale
Procedure, shortened: as §1

barnyardgrass [2] = test: Test C flooded paddy test; assay type: in vivo, Echinochloa crus-galli; conditions: Flood
Procedure, shortened: as §2

giant foxtail = test: Test A pre-/postemergence greenhouse test; assay type: in vivo, Setaria faberi; conditions: for Plant response rating, Foxtail, Giant: 0 to 100 scale where 0 is no effect and 100 is complete control; for Foxtail, Giant plant response rating: 0 to 100 scale
Procedure, shortened: as §1

redroot pigweed = test: Test A pre-/postemergence greenhouse test; assay type: in vivo, Amaranthus retroflexus; conditions: for Plant response rating, Pigweed: 0 to 100 scale where 0 is no effect and 100 is complete control; for Pigweed plant response rating: 0 to 100 scale
Procedure, shortened: as §1

rice = test: Test C flooded paddy test; assay type: in vivo, Oryza sativa; conditions: Flood
Procedure, shortened: as §2

wheat = test: Test A pre-/postemergence greenhouse test; assay type: in vivo, Triticum aestivum; conditions: for Plant response rating, Wheat: 0 to 100 scale where 0 is no effect and 100 is complete control; for Wheat plant response rating: 0 to 100 scale
Procedure, shortened: as §1

umbrella sedge = test: Test C flooded paddy test; assay type: in vivo, Cyperus difformis; conditions: Flood
Procedure, shortened: as §2

[3] = Postemergence, 500 g ai/ha, 0 is no effect, 100 is complete control
[4] = Preemergence, 125 g ai/ha, 0 no effect, 100 complete control
[5] = 62 g ai/ha, scale 0 to 100 (0 no effect, 100 complete control)
[6] = 250 g ai/ha, scale 0 to 100, 0 no effect, 100 complete control, 13 to 15 days
[7] = Preemergence, 500 g ai/ha, 0 no effect, 100 complete control
[8] = 31 g ai/ha, scale 0 to 100 (0 no effect, 100 complete control)
[9] = 125 g ai/ha, scale 0 to 100, 0 no effect, 100 complete control, 13 to 15 days

Cc1cc[n+]([O-])c([S+]([O-])Cc2c(C(F)(F)C(F)(F)F)nn(C)c2OCC(F)(F)F)c1 (stereo not shown) [Compound 91]
Plant response rating, Morningglory (morningglory; Postemergence, 125 g ai/ha): 20
Morningglory plant response rating (morningglory; [3]): 100
Morningglory plant response rating (morningglory; [4]): 40
Plant response rating, Morningglory (morningglory; Preemergence, 500 g ai/ha): 100
Plant response rating, Corn (corn; Postemergence, 125 g ai/ha): 20
Corn plant response rating (corn; [3]): 80
Corn plant response rating (corn; [4]): 10
Plant response rating, Corn (corn; Preemergence, 500 g ai/ha): 90
Plant response rating, Crabgrass, Large (crabgrass; Postemergence, 125 g ai/ha): 50
Crabgrass, Large plant response rating (crabgrass; [3]): 80
Crabgrass, Large plant response rating (crabgrass; [4]): 20
Plant response rating, Crabgrass, Large (crabgrass; Preemergence, 500 g ai/ha): 100
Plant response rating, Ducksalad (duck salad; [5]): 45
Plant response rating, Ducksalad (duck salad; [6]): 100
Plant response rating, Barnyardgrass (barnyardgrass [1]; Postemergence, 125 g ai/ha): 70
Barnyardgrass plant response rating (barnyardgrass [1]; [3]): 90
Barnyardgrass plant response rating (barnyardgrass [1]; [4]): 20
Plant response rating, Barnyardgrass (barnyardgrass [1]; Preemergence, 500 g ai/ha): 100
Plant response rating, Velvetleaf (velvetleaf; Postemergence, 125 g ai/ha): 30
Velvetleaf plant response rating (velvetleaf; [3]): 80
Velvetleaf plant response rating (velvetleaf; [4]): 0
Velvetleaf plant response rating (velvetleaf; [7]): 100
Plant response rating, Barnyardgrass (barnyardgrass [2]; [5]): 0
Plant response rating, Barnyardgrass (barnyardgrass [2]; [6]): 70
Plant response rating, Foxtail, Giant (giant foxtail; Postemergence, 125 g ai/ha): 80
Foxtail, Giant plant response rating (giant foxtail; [3]): 90
Foxtail, Giant plant response rating (giant foxtail; [4]): 90
Plant response rating, Foxtail, Giant (giant foxtail; Preemergence, 500 g ai/ha): 100
Plant response rating, Pigweed (redroot pigweed; Postemergence, 125 g ai/ha): 50
Pigweed plant response rating (redroot pigweed; [3]): 60
Pigweed plant response rating (redroot pigweed; [4]): 90
Plant response rating, Pigweed (redroot pigweed; Preemergence, 500 g ai/ha): 100
Plant response rating, Rice (rice; [5]): 0
Plant response rating, Rice (rice; [6]): 70
Plant response rating, Wheat (wheat; Postemergence, 125 g ai/ha): 60
Wheat plant response rating (wheat; [3]): 80
Wheat plant response rating (wheat; [4]): 40
Wheat plant response rating (wheat; [7]): 100
Plant response rating, Sedge, Umbrella (umbrella sedge; [5]): 75
Plant response rating, Sedge, Umbrella (umbrella sedge; [6]): 100

Cc1ccc[n+]([O-])c1[S+]([O-])Cc1c(C(F)(F)F)nn(C)c1OC(F)F (stereo not shown) [Compound 112]
Plant response rating, Morningglory (morningglory; Postemergence, 125 g ai/ha): 70
Morningglory plant response rating (morningglory; [3]): 90
Morningglory plant response rating (morningglory; [4]): 60
Morningglory plant response rating (morningglory; [7]): 90
Plant response rating, Corn (corn; Postemergence, 125 g ai/ha): 50
Corn plant response rating (corn; [3]): 60
Corn plant response rating (corn; [4]): 40
Corn plant response rating (corn; [7]): 70
Plant response rating, Crabgrass, Large (crabgrass; Postemergence, 125 g ai/ha): 70
Crabgrass, Large plant response rating (crabgrass; [3]): 80
Crabgrass, Large plant response rating (crabgrass; [4]): 70
Crabgrass, Large plant response rating (crabgrass; [7]): 90
Plant response rating, Ducksalad (duck salad; [8]): 0
Plant response rating, Ducksalad (duck salad; [5]): 0
Plant response rating, Ducksalad (duck salad; [9]): 20
Plant response rating, Ducksalad (duck salad; [6]): 50
Plant response rating, Barnyardgrass (barnyardgrass [1]; Postemergence, 125 g ai/ha): 70
Barnyardgrass plant response rating (barnyardgrass [1]; [3]): 80
Barnyardgrass plant response rating (barnyardgrass [1]; [4]): 60
Barnyardgrass plant response rating (barnyardgrass [1]; [7]): 90
Plant response rating, Velvetleaf (velvetleaf; Postemergence, 125 g ai/ha): 50
Velvetleaf plant response rating (velvetleaf; [3]): 70
Velvetleaf plant response rating (velvetleaf; [4]): 10
Velvetleaf plant response rating (velvetleaf; [7]): 60
Plant response rating, Barnyardgrass (barnyardgrass [2]; [8]): 0
Plant response rating, Barnyardgrass (barnyardgrass [2]; [5]): 0
Plant response rating, Barnyardgrass (barnyardgrass [2]; [9]): 15
Plant response rating, Barnyardgrass (barnyardgrass [2]; [6]): 45
Plant response rating, Foxtail, Giant (giant foxtail; Postemergence, 125 g ai/ha): 70
Foxtail, Giant plant response rating (giant foxtail; [3]): 80
Foxtail, Giant plant response rating (giant foxtail; [4]): 80
Foxtail, Giant plant response rating (giant foxtail; [7]): 100
Plant response rating, Pigweed (redroot pigweed; Postemergence, 125 g ai/ha): 40
Pigweed plant response rating (redroot pigweed; [3]): 60
Pigweed plant response rating (redroot pigweed; [4]): 10
Pigweed plant response rating (redroot pigweed; [7]): 90
Plant response rating, Rice (rice; [8]): 0
Plant response rating, Rice (rice; [5]): 0
Plant response rating, Rice (rice; [9]): 0
Plant response rating, Rice (rice; [6]): 15
Plant response rating, Wheat (wheat; Postemergence, 125 g ai/ha): 50
Wheat plant response rating (wheat; [3]): 60
Wheat plant response rating (wheat; [4]): 40
Wheat plant response rating (wheat; [7]): 70
Plant response rating, Sedge, Umbrella (umbrella sedge; [8]): 0
Plant response rating, Sedge, Umbrella (umbrella sedge; [5]): 30
Plant response rating, Sedge, Umbrella (umbrella sedge; [9]): 75
Plant response rating, Sedge, Umbrella (umbrella sedge; [6]): 95
